Some test systems named below: HOP-62; RPMI-8226; XF498; SNB-19; LOX IMVI; SK-OV-3; M19-MEL; DMS-273; SN12C; HOP-92; DMS-114; LXFL 529; TK-10; 786-0; T47D; MDA-N; BT-549; Hs-578T; MDA-MB-231; DU-145.
Common to all, as to assay: NCI anticancer screen, dose series, 48 h

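Method: 48-hour compound exposure of cells in 96-well plates, five concentrations, linear interpolation of endpoints. The concentration for 50% growth inhibition is given as GI50.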 Activity calls are given as the source filed them. Rule as the data show it: active = GI50 up to about 1.1 µM and inactive = higher.

The values that follow come from ChEMBL document CHEMBL1201862, “PubChem BioAssay data set” (2004).

Consider `Cc1c2ccncc2c(C)c2c1[nH]c1ccc(OCCN(C)C)cc12`, for which the GI50 was 0.671 µM (active) in the assay with HOP-62; 0.0638 µM (active) with RPMI-8226; 0.807 µM (active) in the assay with XF498; 0.256 µM (active) in the assay with SNB-19; 0.063 µM (active) in the assay with LOX IMVI; 0.501 µM (active) in the assay on SK-OV-3. Also, the GI50 was 0.582 µM (active) in the assay with M19-MEL, 0.0998 µM (active) with DMS-273, 0.309 µM (active) in the assay with SN12C and 0.583 µM (active) in the assay on HOP-92.

For the compound `CC(C)=CCC/C(C)=C/CC/C(C)=C/C(O)c1ccccc1` (stereo not drawn), the GI50 was 19.1 µM (inactive) in the assay with HOP-62; 18.3 µM (inactive) with DMS-114; 18.7 µM (inactive) with RPMI-8226; 17.8 µM (inactive) in the assay on LXFL 529; 20.2 µM (inactive) in the assay with SNB-19; 19.6 µM (inactive) in the assay on LOX IMVI. For the same compound, the GI50 was 29.1 µM (inactive) in the assay on TK-10, 21.8 µM (inactive) with SK-OV-3, 18.3 µM (inactive) with M19-MEL and 19.1 µM (inactive) with SN12C.

For the compound `COC1(O)c2cccc(Cl)c2C(=O)N1C1(C(N)=O)CCCCC1` (stereo not drawn), the GI50 in the assay on HOP-62, in the assay on DMS-114, in the assay on RPMI-8226, in the assay with XF498, with SNB-19 and in the assay with LOX IMVI was > 100 µM (inactive) in each case. In addition, the GI50 is > 100 µM (inactive) in the assay with SK-OV-3; > 100 µM (inactive) in the assay on M19-MEL; > 100 µM (inactive) in the assay with DMS-273; > 100 µM (inactive) with SN12C; 24.4 µM (inactive) in the assay on HOP-92.

On to `CCN(CC)c1c(C(=O)/C=C/c2ccc(Cl)cc2)c(-c2ccccc2)nn(C)c1=O`, for which the GI50 in the assay on 786-0 is 1.85 µM (inactive); with HOP-62 it was 2.12 µM (inactive); in the assay with DMS-114, 1.97 µM (inactive); with RPMI-8226 it was 2.25 µM (inactive); with LXFL 529, 1.85 µM (inactive); with SNB-19 it was 1.93 µM (inactive). For the same compound, the GI50 with LOX IMVI is 1.9 µM (inactive); in the assay on TK-10 it was 2.14 µM (inactive); in the assay on SK-OV-3, 3.94 µM (inactive); with M19-MEL it was 1.69 µM (inactive); with DMS-273, 1.71 µM (inactive); with SN12C it was 2.1 µM (inactive). Besides, in the assay with HOP-92, the GI50 was 1.63 µM (inactive).

Take `O=C(O)/C(O)=C1/C=C(c2ccccc2)c2ccccc21`: the GI50 in the assay on 786-0 was 28.4 µM (inactive); in the assay on HOP-62, 25.4 µM (inactive); in the assay on DMS-114, 18.7 µM (inactive); in the assay with RPMI-8226, 19.4 µM (inactive); in the assay on LXFL 529, 27.5 µM (inactive); in the assay with SNB-19 it was 29.2 µM (inactive). Further, the GI50 is 17.9 µM (inactive) in the assay with LOX IMVI; 31.6 µM (inactive) in the assay on TK-10; 30.4 µM (inactive) in the assay with SK-OV-3; 22.2 µM (inactive) with M19-MEL; 18.6 µM (inactive) in the assay with DMS-273; 23.8 µM (inactive) in the assay on SN12C. The GI50 with HOP-92 is 18.9 µM (inactive).

Turning to `O=C(O)C(SC(=S)c1ccc(C(=S)SC(C(=O)O)c2ccccc2)cc1)c1ccccc1` (stereo not drawn), the GI50 in the assay with 786-0 is 40.9 µM (inactive); with HOP-62 it was > 100 µM (inactive); in the assay on DMS-114 it was 35 µM (inactive); in the assay with RPMI-8226 it was 42.8 µM (inactive); in the assay with XF498, > 100 µM (inactive); with LXFL 529 it was 50.8 µM (inactive). The GI50 with SNB-19 was 46.6 µM (inactive); in the assay on LOX IMVI it was 50.6 µM (inactive); with TK-10 it was > 100 µM (inactive); in the assay on SK-OV-3, > 100 µM (inactive); with DMS-273, 47.2 µM (inactive); with SN12C it was > 100 µM (inactive). In addition, in the assay with HOP-92, the GI50 was > 100 µM (inactive).

As for `C1CCCCc2nc3c(nc2CCC1)c1nc2c(nc1c1nc4c(nc31)CCCCCCCC4)CCCCCCCC2`, the GI50 was > 100 µM (inactive) in the assay on 786-0; 82.6 µM (inactive) with HOP-62; > 100 µM (inactive) in the assay with LXFL 529; > 100 µM (inactive) in the assay with SNB-19; > 100 µM (inactive) in the assay on LOX IMVI; > 100 µM (inactive) with TK-10. Moreover, the GI50 with SK-OV-3, with SN12C and with HOP-92 was > 100 µM (inactive) each time.

For the compound `C1=CCN(c2ccccc2)CC1`, the GI50 with DMS-114 is 32.4 µM (inactive); with RPMI-8226 it was 2.48 µM (inactive); in the assay on XF498, 17.1 µM (inactive); with LXFL 529, 18.6 µM (inactive); with SNB-19, > 100 µM (inactive); in the assay with LOX IMVI, 43.9 µM (inactive). The GI50 in the assay on TK-10 was 40 µM (inactive); with SK-OV-3, > 100 µM (inactive); in the assay with DMS-273, > 100 µM (inactive); in the assay on SN12C it was 26.3 µM (inactive); with HOP-92, 21.2 µM (inactive).

As for `COc1ccc(-c2cc(N3CCN(c4ccccc4)CC3)c(C#N)c(=O)o2)cc1`, the GI50 was 22.1 µM (inactive) with DMS-114; 62.5 µM (inactive) in the assay with RPMI-8226; 6.59 µM (inactive) in the assay on XF498; 27.3 µM (inactive) in the assay with LXFL 529; 8.49 µM (inactive) with SNB-19; 30.5 µM (inactive) with LOX IMVI. In addition, the GI50 with TK-10 was 22.4 µM (inactive); with DMS-273, 40 µM (inactive); in the assay with SN12C, 30.2 µM (inactive); in the assay on HOP-92, 55 µM (inactive).

Consider `O=C1CCCC1C(O)(C(F)(F)Cl)C(F)(F)Cl` (stereo not drawn), for which the GI50 with 786-0, in the assay on T47D, in the assay on HOP-62, with MDA-N, in the assay on RPMI-8226 and in the assay with BT-549 was > 10 µM (inactive) throughout. In addition, the GI50 with SNB-19, in the assay with LOX IMVI, with TK-10, with SK-OV-3, with Hs-578T and with SN12C was > 10 µM (inactive) in each case. For the same compound, the GI50 in the assay on MDA-MB-231, in the assay on DU-145 and in the assay with HOP-92 was > 10 µM (inactive) throughout.

For `CSc1nc2c(nc(N)n2C2OCC(O)C(O)C2O)c(=O)[nH]1` (stereo not drawn), the GI50 in the assay with 786-0, with HOP-62, in the assay on DMS-114, in the assay with XF498, in the assay with LXFL 529 and in the assay with SNB-19 was > 100 µM (inactive) throughout. Besides, the GI50 in the assay on LOX IMVI, in the assay with TK-10, in the assay with SK-OV-3, in the assay with M19-MEL, in the assay on SN12C and with HOP-92 was > 100 µM (inactive) each time.

For the compound `C=C=C(Sc1ccccc1)C(C)(C)OC(C)=O`, the GI50 in the assay with 786-0 was 16.5 µM (inactive); in the assay on RPMI-8226 it was 30.7 µM (inactive); in the assay with LXFL 529, 18.2 µM (inactive); in the assay on SNB-19 it was 18.8 µM (inactive); in the assay on LOX IMVI, 16.5 µM (inactive); in the assay on TK-10 it was 32.5 µM (inactive). Also, the GI50 in the assay on SK-OV-3 is 25.1 µM (inactive); with M19-MEL, 15.8 µM (inactive); with SN12C, 16.2 µM (inactive); in the assay on DU-145, 27.2 µM (inactive); in the assay with HOP-92, 15.8 µM (inactive).

For the compound `C/C(C[n+]1ccccc1)=N\N=C(N)N`, the GI50 in the assay with 786-0, in the assay with T47D, in the assay on HOP-62, in the assay on MDA-N, with RPMI-8226 and in the assay with BT-549 was > 100 µM (inactive) in each case. Also, the GI50 in the assay on SNB-19, with LOX IMVI, with TK-10, in the assay on SK-OV-3, in the assay with Hs-578T and in the assay on SN12C was > 100 µM (inactive) throughout. Moreover, the GI50 in the assay on MDA-MB-231, with DU-145 and with HOP-92 was > 100 µM (inactive) in each case.

As for `COc1ccc(C[C@H]2COC(=O)[C@@H]2Cc2cccc(Br)c2)cc1OC`, the GI50 in the assay with 786-0 was 28.1 µM (inactive); with T47D, 27.7 µM (inactive); in the assay on HOP-62, 31.4 µM (inactive); in the assay on MDA-N, 20.7 µM (inactive); in the assay on RPMI-8226, 17.8 µM (inactive); with BT-549 it was 13.9 µM (inactive). In addition, the GI50 in the assay with SNB-19 was 52 µM (inactive); in the assay on LOX IMVI, 3.85 µM (inactive); in the assay with TK-10, 30.4 µM (inactive); in the assay on SK-OV-3, 26.6 µM (inactive); with Hs-578T it was 32.3 µM (inactive); in the assay with SN12C, 27.5 µM (inactive). In addition, the GI50 with MDA-MB-231 was 19.1 µM (inactive); with DU-145, 33.3 µM (inactive); in the assay with HOP-92 it was 12.1 µM (inactive).

Take `Cc1cc(C)c2c(O)cc(-c3cccc4ccccc34)nc2n1`: the GI50 in the assay on 786-0 was 0.612 µM (active); with T47D it was 24.4 µM (inactive); in the assay with HOP-62, 10 µM (inactive); in the assay on MDA-N, 0.218 µM (active); in the assay with RPMI-8226, 0.671 µM (active); in the assay on BT-549, 3.3 µM (inactive). Further, the GI50 was 1.12 µM (inactive) in the assay with SNB-19; 0.628 µM (active) in the assay on LOX IMVI; > 32.4 µM (inactive) in the assay with TK-10; 0.462 µM (active) in the assay with SK-OV-3; 1.09 µM (active) with Hs-578T; 2.78 µM (inactive) in the assay with SN12C. Moreover, the GI50 in the assay on MDA-MB-231 is 2.22 µM (inactive); with DU-145, 2.71 µM (inactive); with HOP-92, 0.361 µM (active).

For `NC(CP(=O)(O)O)C(=O)O` (stereo not drawn), the GI50 in the assay with 786-0, in the assay on T47D, with HOP-62, in the assay on MDA-N, in the assay on RPMI-8226 and with BT-549 was > 100 µM (inactive) in each case. The GI50 in the assay with SNB-19 was > 100 µM (inactive); with LOX IMVI, 43.6 µM (inactive); in the assay with TK-10 it was > 100 µM (inactive); in the assay on SK-OV-3, > 100 µM (inactive); with Hs-578T, > 100 µM (inactive); in the assay with SN12C it was > 100 µM (inactive). In addition, the GI50 in the assay on MDA-MB-231, with DU-145 and in the assay on HOP-92 was > 100 µM (inactive) in each case.
